The values that follow come from patent US12565520B2, “Chemically-stabilized allosteric modulators of leucine-rich repeat kinase 2 (LRRK2)” (UNIVERSITY OF GEORGIA RESEARCH FOUNDATION, INC., priority 2020, dated 2026).

The test concerns endogenous LRRK2 kinase activity as Rab10 phosphorylation. Nature of the test: Rab10 phosphorylation in untransfected A549 cells. The test is classed as cell-based. To be noted: 10 μM. The text has this: To test whether disruption of LRRK2 dimerization can also attenuate Rab phosphorylation, a hyperactive LRRK2 mutant (R1441G) and Rab29 were overexpressed in HEK293T cells (Z. Liu et al., LRRK2 phosphorylates membrane-bound Rabs and is activated by GTP-bound Rab7L1 to promote recruitment to the trans-Golgi network. Hum Mol Genet 27, 385-395 (2018); and E. Purlyte et al., Rab29 activation of the Parkinson's disease-associated LRRK2 kinase. The EMBO Journal 37, 1-18 (2018)). Overexpression of Rab29 induces recruitment of LRRK2 to the trans-golgi network (TGN) and activates it there. After 24-hour transfection, cells were then treated with 10 μM peptide for 15 hours. […] To test the effect of the dimerization inhibitors on endogenous LRRK2 function, we performed a similar experiment using non-transfected A549 cells which natively express detectable levels of both LRRK2 and Rab10.

Entries after “also recorded” stand apart in the source; their conditions may differ.

For “Roc-domain stapled peptide formed from SEQ ID NO. 6 DEKQRKAC(Nle)SKITKEXLNKX, X = (S)-2-(4′-pentenyl)alanine; PEG3 linker, FAM or biotin label (DEKQRKACXSKITKEXLNKX; hydrocarbon staple; Nle; PEG3 linker; FAM or biotin; ROC domain petide; (9)..(9) Xaa is norleucine; (16)..(16) Xaa is (S)-2-(4′-pentenyl)alanine; (20)..(20) Xaa is (S)-2-(4′-pentenyl)alanine) [LRIP4]”, the “Rab10 phosphorylation by endogenous LRRK2” value is “significant reduction in phosphorylation of Rab10; also recorded: inhibition of Rab10 phosphorylation”.
